Results taken from ChEMBL document CHEMBL1125524, “Adenosine A1 antagonists. 2. Structure-activity relationships on diuretic activities and protective effects against acute renal failure” (J Med Chem, 1992).

Legend:
[1] = system: Rattus norvegicus; experiment: Serum creatinine concentration measured after intraperitoneal administration of 1 mg/kg of compound to rats(vehicle 2.89+/-0.42); type: functional
[2] = system: Rattus norvegicus; experiment: Serum creatinine concentration measured after intraperitoneal administration of 1 mg/kg of compound to rats(vehicle 3.91+/-0.37); type: functional
[3] = system: Rattus norvegicus; experiment: Effect on urinary excretion potassium and sodium after oral administration of 0.4 mg/kg to rats(potassium and sodium excretion in control rat is 0.191+/-0.021); type: functional, Urine
[4] = system: Rattus norvegicus; experiment: Urea nitrogen concentration measured after intraperitoneal administration of 1 mg/kg of compound to rats(vehicle 128.9+/-9.3); type: functional
[5] = system: Rattus norvegicus; experiment: Ratio of urinary excretion value (urinary volume) in treated rats to that in control rats, at a peroral dose of 0.4 mg/Kg; type: functional, Urine
[6] = system: Rattus norvegicus; experiment: Ratio of urinary excretion value (urinary volume) in treated rats to that in control rats, at a peroral dose of 1.6 mg/Kg; type: functional, Urine
[7] = system: Rattus norvegicus; experiment: Percent inhibition of serum creatinine by the compound given as ratio of Cr value in treated to vehicle treated ones after intraperitoneal administration of 1 mg/kg of compound to rats(vehicle 2.89+/-0.42); type: functional; conditions: ip
[8] = system: Rattus norvegicus; experiment: Ratio of sodium ion/potassium ion concentration in treated rats to that in control rats, at a peroral dose of 0.4 mg/Kg; type: functional
[9] = system: Rattus norvegicus; experiment: Ratio of sodium ion/potassium ion concentration in treated rats to that in control rats, at a peroral dose of 1.6 mg/Kg; type: functional
[10] = system: Rattus norvegicus; experiment: Ratio of urinary excretion value (Na+ concentration) in treated rats to that in control rats, at a peroral dose of 0.4 mg/Kg; type: functional, Urine
[11] = system: Rattus norvegicus; experiment: Ratio of urinary excretion value (Na+ concentration) in treated rats to that in control rats, at a peroral dose of 1.6 mg/Kg; type: functional, Urine
[12] = system: Rattus norvegicus; experiment: Ratio of urinary excretion value (Na+ concentration) in treated rats to that in control rats, at a peroral dose of 6.25 mg/Kg; type: functional, Urine
[13] = system: Rattus norvegicus; experiment: Effect on urinary excretion potassium and sodium after oral administration of 1.6 mg/kg to rats(potassium and sodium excretion in control rat is 0.183+/-0.012); type: functional, Urine
[14] = system: Rattus norvegicus; experiment: Percent inhibition of serum creatinine by the compound given as ratio of Cr value in treated to vehicle treated ones after intraperitoneal administration of 1 mg/kg of compound to rats(vehicle 3.91+/-0.37); type: functional; conditions: ip
[15] = system: Rattus norvegicus; experiment: Urea nitrogen concentration measured after intraperitoneal administration of 1 mg/kg of compound to rats(vehicle 107.7+/-15.2); type: functional
[16] = system: Rattus norvegicus; experiment: Oral diuretic activity was measured after oral administration of 0.4 mg/kg to rats(control volume is 0.99+/-0.07); type: functional, Urine
[17] = system: Rattus norvegicus; experiment: Oral diuretic activity was measured after oral administration of 1.6 mg/kg to rats(control volume is 0.82+/-0.05); type: functional, Urine
[18] = system: Rattus norvegicus; experiment: Percent inhibition of Urea nitrogen by the compound given as ratio of UN value in treated to vehicle treated ones after intraperitoneal administration of 1 mg/kg of compound to rats(vehicle 107.7+/-15.2); type: functional; conditions: ip
[19] = system: Rattus norvegicus; experiment: Percent inhibition of Urea nitrogen by the compound given as ratio of UN value in treated to vehicle treated ones after intraperitoneal administration of 1 mg/kg of compound to rats(vehicle 128.9+/-9.3); type: functional; conditions: ip
[20] = system: Rattus norvegicus; experiment: Ratio of urinary excretion value (urinary volume) in treated rats to that in control rats, at a peroral dose of 6.25 mg/Kg; type: functional, Urine
[21] = target: Adenosine A2 receptor (Rattus norvegicus, UniProt P29276+P30543)
[22] = system: Rattus norvegicus; experiment: Serum creatinine concentration measured after intraperitoneal administration of 1 mg/kg of compound to rats(vehicle 5.07+/-0.33); type: functional
[23] = system: Rattus norvegicus; experiment: Effect on urinary excretion potassium and sodium after oral administration of 25 mg/kg to rats(potassium and sodium excretion in control rat is 0.130+/-0.009); type: functional, Urine
[24] = system: Rattus norvegicus; experiment: Urea nitrogen concentration measured after intraperitoneal administration of 1 mg/kg of compound to rats(vehicle 195.8+/-14.4); type: functional
[25] = system: Rattus norvegicus; experiment: Ratio of urinary excretion value (urinary volume) in treated rats to that in control rats, at a peroral dose of 25 mg/Kg; type: functional, Urine
[26] = system: Rattus norvegicus; experiment: Ratio of urinary excretion value (Na+ concentration) in treated rats to that in control rats, at a peroral dose of 25 mg/Kg; type: functional, Urine
[27] = system: Rattus norvegicus; experiment: Oral diuretic activity was measured after oral administration of 25 mg/kg to rats(control volume is 0.94+/-0.04); type: functional, Urine
[28] = system: Rattus norvegicus; experiment: Percent inhibition of Urea nitrogen by the compound given as ratio of UN value in treated to vehicle treated ones after intraperitoneal administration of 1 mg/kg of compound to rats(vehicle 195.8+/-14.4); type: functional; conditions: Rattus norvegicus, ip
[29] = target: T1, Adenosine receptor A1 (Cavia porcellus, UniProt P47745)
T1 sequence (P47745 whole entry): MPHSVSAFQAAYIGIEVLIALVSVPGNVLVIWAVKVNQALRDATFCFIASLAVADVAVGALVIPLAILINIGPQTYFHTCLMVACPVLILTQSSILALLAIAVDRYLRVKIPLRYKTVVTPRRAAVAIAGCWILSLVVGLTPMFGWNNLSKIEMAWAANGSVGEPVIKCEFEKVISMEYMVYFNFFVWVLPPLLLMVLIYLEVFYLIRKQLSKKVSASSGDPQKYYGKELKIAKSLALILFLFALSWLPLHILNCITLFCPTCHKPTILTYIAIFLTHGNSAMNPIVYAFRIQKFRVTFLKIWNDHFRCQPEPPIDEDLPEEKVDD
Description: Binding affinity against adenosine A1 receptor in guinea pig forebrain membranes using N6-[3H]cyclohexyladenosine as radioligand

[30] = organism: Rattus norvegicus; experiment: animal or person; conditions: ip, read-out: Inhibition, dose 1 mg/kg, route intraperitoneal
[31] = system: Rattus norvegicus; experiment: Serum creatinine concentration measured after intraperitoneal administration of 1 mg/kg of compound to rats(vehicle 3.86+/-0.27); type: functional
[32] = system: Rattus norvegicus; experiment: Serum creatinine concentration measured after intraperitoneal administration of 10 mg/kg of compound to rats(vehicle 3.94+/-0.24); type: functional
[33] = system: Rattus norvegicus; experiment: Effect on urinary excretion potassium and sodium after oral administration of 25 mg/kg to rats(potassium and sodium excretion in control rat is 0.134+/-0.004); type: functional, Urine
[34] = system: Rattus norvegicus; experiment: Urea nitrogen concentration measured after intraperitoneal administration of 1 mg/kg of compound to rats(vehicle 178+/-11.3); type: functional
[35] = system: Rattus norvegicus; experiment: Oral diuretic activity was measured after oral administration of 25 mg/kg to rats(control volume is 0.80+/-0.04); type: functional, Urine
[36] = system: Rattus norvegicus; experiment: Ratio of sodium ion/potassium ion concentration in treated rats to that in control rats, at a peroral dose of 25 mg/Kg; type: functional
[37] = system: Rattus norvegicus; experiment: Effect on urinary excretion potassium and sodium after oral administration of 1.6 mg/kg to rats(potassium and sodium excretion in control rat is 0.261+/-0.008); type: functional, Urine
[38] = system: Rattus norvegicus; experiment: Percent inhibition of serum creatinine by the compound given as ratio of Cr value in treated to vehicle treated ones after intraperitoneal administration of 1 mg/kg of compound to rats(vehicle 3.86+/-0.27); type: functional; conditions: ip
[39] = system: Rattus norvegicus; experiment: Percent inhibition of serum creatinine by the compound given as ratio of Cr value in treated to vehicle treated ones fter intraperitoneal administration of 10 mg/kg of compound to rats(vehicle 3.94+/-0.24); type: functional; conditions: ip
[40] = system: Rattus norvegicus; experiment: Urea nitrogen concentration measured after intraperitoneal administration of 10 mg/kg of compound to rats(vehicle 141.3+/-6.6); type: functional
[41] = system: Rattus norvegicus; experiment: Oral diuretic activity was measured after oral administration of 1.6 mg/kg to rats(control volume is […]+/-[…]); type: functional, Urine
[42] = system: Rattus norvegicus; experiment: Percent inhibition of Urea nitrogen by the compound given as ratio of UN value in treated to vehicle treated ones fter intraperitoneal administration of 10 mg/kg of compound to rats(vehicle 141.3+/-6.6); type: functional; conditions: ip
[43] = system: Rattus norvegicus; experiment: Percent inhibition of Urea nitrogen by the compound given as ratio of UN value in treated to vehicle treated ones after intraperitoneal administration of 1 mg/kg of compound to rats(vehicle 178+/-11.3); type: functional; conditions: ip
[44] = system: Rattus norvegicus; experiment: Serum creatinine concentration measured after intraperitoneal administration of 10 mg/kg of compound to rats(vehicle 5.43+/-0.11); type: functional
[45] = system: Rattus norvegicus; experiment: Effect on urinary excretion potassium and sodium after oral administration of 1.6 mg/kg to rats(potassium and sodium excretion in control rat is 0.079+/-0.007); type: functional, Urine
[46] = system: Rattus norvegicus; experiment: Effect on urinary excretion potassium and sodium after oral administration of 25 mg/kg to rats(potassium and sodium excretion in control rat is 0.193+/-0.016); type: functional, Urine
[47] = system: Rattus norvegicus; experiment: Percent inhibition of serum creatinine by the compound given as ratio of Cr value in treated to vehicle treated ones after intraperitoneal administration of 10 mg/kg of compound to rats(vehicle 182.5+/-3.4); type: functional; conditions: ip
[48] = system: Rattus norvegicus; experiment: Urea nitrogen concentration measured after intraperitoneal administration of 10 mg/kg of compound to rats(vehicle 182.5+/-3.4); type: functional
[49] = system: Rattus norvegicus; experiment: Oral diuretic activity was measured after oral administration of 1.6 mg/kg to rats(control volume is 0.69+/-0.03); type: functional, Urine
[50] = system: Rattus norvegicus; experiment: Oral diuretic activity was measured after oral administration of 25 mg/kg to rats(control volume is 0.91+/-0.08); type: functional, Urine
[51] = system: Rattus norvegicus; experiment: Percent inhibition of Urea nitrogen by the compound given as ratio of UN value in treated to vehicle treated ones after intraperitoneal administration of 10 mg/kg of compound to rats(vehicle 182.5+/-3.4); type: functional; conditions: ip

## CCCn1c(=O)c2c(nc(C(C3CC3)C3CC3)n2C)n(CCC)c1=O
[1]
  Cr: 1.63 mg/dL
[2]
  Cr: 4.49 mg/dL
[3]
  Na: 0.174 m equiv 6hr-1 100g-1
[4]
  UN: 136.5 mg/dL
[5]
  T/C: 0.97
[6]
  T/C: 1.8
[7]
  inhibition in vivo at 1 mg/kg: 44%
[8]
  Na+/K+: 0.94
[9]
  Na+/K+: 1.21
[10]
  T/C: 0.91
[11]
  T/C: 1.48
[12]
  T/C: 2.14
[13]
  Na: 0.271 m equiv 6hr-1 100g-1
[14]
  inhibition in vivo at 1 mg/kg: -15%
[15]
  UN: 54.1 mg/dL
[16]
  Urine volume: 0.96 ml 6hr-1 100g-1
[17]
  Urine volume: 1.48 ml 6hr-1 100g-1
[18]
  inhibition in vivo at 1 mg/kg: 50%
[19]
  inhibition in vivo at 1 mg/kg: 6%
[20]
  T/C: 1.78
[21]
  Ki: 29000 nM

## CCCn1c(=O)c2nc(C3CC4C=CC3C4)[nH]c2n(CCC)c1=O (stereo in doubt; 18)
[22]
  Cr: 2.23 mg/dL
[23]
  Na: 0.271 m equiv 6hr-1 100g-1
[24]
  UN: 92.7 mg/dL
[25]
  T/C: 1.87
[26]
  T/C: 2.09
[27]
  Urine volume: 1.75 ml 6hr-1 100g-1
[28]
  inhibition in vivo at 1 mg/kg: 53%
[29]
  Ki: 3.4 nM
[21]
  Ki: 210 nM
[30]
  inhibition in vivo at 1 mg/kg: 56%

## Cn1c(=O)c2nc(-c3ccccc3)[nH]c2n(C)c1=O [8-PHENYL THEOPHYLLINE]
[31]
  Cr: 3.14 mg/dL
[32]
  Cr: 1.74 mg/dL
[33]
  Na: 0.201 m equiv 6hr-1 100g-1
[34]
  UN: 148.3 mg/dL
[35]
  Urine volume: 1.1 ml 6hr-1 100g-1
[6]
  T/C: 0.63
[25]
  T/C: 1.38
[9]
  Na+/K+: 0.87
[36]
  Na+/K+: 1.39
[37]
  Na: 0.175 m equiv 6hr-1 100g-1
[11]
  T/C: 0.87
[26]
  T/C: 1.39
[12]
  T/C: 1.54
[38]
  inhibition in vivo at 1 mg/kg: 19%
[39]
  inhibition in vivo at 10 mg/kg: 56%
[40]
  UN: 62.4 mg/dL
[41]
  Urine volume: 0.88 ml 6hr-1 100g-1
[42]
  inhibition in vivo at 10 mg/kg: 56%
[43]
  inhibition in vivo at 1 mg/kg: 17%
[20]
  T/C: 1.79
[29]
  Ki: 1600 nM
[21]
  Ki: 2300 nM

## Cn1c(=O)c2nc[nH]c2n(C)c1=O.O [THEOPHYLLINE]
[44]
  Cr: 5.32 mg/dL
[45]
  Na: 0.09 m equiv 6hr-1 100g-1
[46]
  Na: 0.417 m equiv 6hr-1 100g-1
[6]
  T/C: 1.03
[25]
  T/C: 1.34
[9]
  Na+/K+: 1.06
[36]
  Na+/K+: 1.08
[11]
  T/C: 1.14
[26]
  T/C: 2.16
[12]
  T/C: 1.52
[47]
  inhibition in vivo at 10 mg/kg: 2%
[48]
  UN: 174 mg/dL
[49]
  Urine volume: 0.71 ml 6hr-1 100g-1
[50]
  Urine volume: 1.22 ml 6hr-1 100g-1
[51]
  inhibition in vivo at 10 mg/kg: 5%
[20]
  T/C: 1.42
